A short description of series [1]: Solubility in 20% HPbetaCD after 24 hrs. The format is physicochemical.
A short description of series [2]: Solubility in 40% HPbetaCD after 24 hrs. The series is classed as physicochemical.
A short description of series [3]: Clearance in iv dosed Zucker fa/fa rat. The series is classed as ADME, organism-based. To be noted: in vivo.
Series [4] in a line: Clearance in iv dosed Swiss albino mouse. The series is classed as ADME, organism-based. To be noted: in vivo.
The nature of series [5]: Clearance in iv dosed Sprague-Dawley rat. The series is classed as ADME, organism-based. To be noted: in vivo.
Series [6] in a line: Clearance in iv dosed Beagle dog. The format is ADME, organism-based, Canis lupus familiaris. To be noted: in vivo.
Series [7] is described as follows: Clearance in iv dosed Cynomolgus monkey. The format is ADME, organism-based, Macaca fascicularis. To be noted: in vivo.
Series [8] concerns the target Cytochrome P450 2C9 (Homo sapiens, UniProt P11712). Put plainly: Inhibition of CYP2C9. The format is ADME.
The nature of series [9]: Solubility in water at low pH. The format is physicochemical. To be noted: buffer.
A short description of series [10]: Solubility in water. The series is classed as physicochemical. To be noted: buffer.

Structures are written as SMILES. Values after ≈ are worked out from the molar mass of the structure shown.

Cytochrome P450 2C9, sequence (P11712 whole entry): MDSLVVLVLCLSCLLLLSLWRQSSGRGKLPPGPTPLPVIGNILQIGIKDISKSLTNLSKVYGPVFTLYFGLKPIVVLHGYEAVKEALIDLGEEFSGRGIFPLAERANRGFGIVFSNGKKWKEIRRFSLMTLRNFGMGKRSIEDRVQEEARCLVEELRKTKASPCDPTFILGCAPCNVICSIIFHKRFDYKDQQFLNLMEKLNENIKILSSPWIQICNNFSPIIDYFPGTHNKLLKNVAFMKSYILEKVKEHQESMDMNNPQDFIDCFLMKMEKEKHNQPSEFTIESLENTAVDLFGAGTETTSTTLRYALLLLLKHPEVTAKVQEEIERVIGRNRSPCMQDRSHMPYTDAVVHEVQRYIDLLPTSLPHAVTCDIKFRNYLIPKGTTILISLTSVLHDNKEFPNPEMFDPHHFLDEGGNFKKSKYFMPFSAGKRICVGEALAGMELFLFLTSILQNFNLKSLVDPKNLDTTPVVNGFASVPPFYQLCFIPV

As for `Cc1ncccc1Oc1ncnc(OC2CCN(C(=O)OC(C)C)CC2)c1C`, the solubility at 24 h in series [1] and in series [2] was 15900 µg/mL (≈ 41.1 mM) in each case.
Consider `CC(C)OC(=O)N1CCC(Oc2ncnc3c2cnn3-c2ccc(S(C)(=O)=O)cc2F)CC1`, for which the clearance (in general, the volume of plasma or blood freed of the substance per unit of time) is 7.33 mL/min/kg in series [3]; 3.83 mL/min/kg in series [4]; 20 mL/min/kg in series [5]; 2 mL/min/kg in series [6]; 1.83 mL/min/kg in series [7].
Turning to `Cc1ccc(Oc2ncnc(OC3CCN(C(=O)OC(C)C)CC3)c2C)c(C)n1`, the solubility (in general, the dissolved amount per volume that the medium holds) at 24 h in [1] worked out at 13200 µg/mL (≈ 33.1 mM).
On to `Cc1c(Oc2ccc(S(C)(=O)=O)cc2F)ncnc1OC1CCN(C(=O)OC(C)C)CC1`, for which the solubility at 24 h in [1] and in series [2] was 1100 µg/mL (≈ 2.35 mM) in each case. In [8], the concentration for half-maximal inhibition (IC50) (commonly the midpoint of a concentration-inhibition curve) was determined as 5.3 µM.
With `Cc1c(Nc2ccc(S(C)(=O)=O)cc2F)ncnc1OC1CCN(C(=O)OC(C)C)CC1`, in series [2], the concentration in solution (solubility at 24 h) was 16700 µg/mL (≈ 35.8 mM).
Still for that read-out and setting: as for `Cc1ncccc1Nc1ncnc(OC2CCN(C(=O)OC(C)C)CC2)c1C`, the figure is 7700 µg/mL (≈ 20 mM); as for `Cc1ccncc1Oc1ncnc(OC2CCN(C(=O)OC(C)C)CC2)c1C`, 8500 µg/mL (≈ 22 mM).
`Cc1c(Oc2cncc(F)c2)ncnc1OC1CCN(C(=O)OC(C)C)CC1` came in with a solubility at 24 h in series [1] of 5100 µg/mL (≈ 13.1 mM).
`Cc1nc(S(C)(=O)=O)ccc1Oc1ncnc(OC2CCN(C(=O)OC(C)C)CC2)c1C` returned a solubility at 24 h in series [1] of 6700 µg/mL (≈ 14.4 mM).
`Cc1nc(S(C)(=O)=O)ccc1Nc1ncnc(OC2CCN(C(=O)OC(C)C)CC2)c1C`: the solubility entry in series [9] was “soluble”; in series [10], “Insoluble”. In [1], the concentration in solution (solubility at 24 h) was 24000 µg/mL (≈ 51.8 mM). In series [8], the IC50 is 2.5 µM.

(Values after ChEMBL document CHEMBL1949629, “Discovery of a second generation agonist of the orphan G-protein coupled receptor GPR119 with an improved profile” (Bioorg Med Chem Lett, 2012).)
